Source: US20240122182A1, “PESTICIDALLY ACTIVE HETEROCYCLIC DERIVATIVES WITH SULFUR CONTAINING SUBSTITUENTS” (SYNGENTA CROP PROTECTION AG, priority 2021, published 2024)

Tests used:
Type in all cases: in vivo
[1] = tested on: Nilaparvata lugens (Brown Plant Hopper); test: Activity against Nilaparvata lugens (brown plant hopper), larvicide, systemic into water; settings: 168 h, application rate of 12.5 ppm, N3 nymphs, 7 days after infestation
Method: Larvicide, systemic into water Rice plants cultivated in a nutritive solution were treated with the diluted test solutions into nourishing cultivation system. 1 day after application plants were infested with ˜20 N3 nymphs. 7 days after infestation samples were assessed for mortality and growth regulation.

[2] = tested on: Chilo suppressalis (Striped Rice Stemborer); test: Activity against Chilo suppressalis (striped rice stemborer), artificial diet; settings: 144 h, application rate of 200 ppm, L2 larvae, 6 days after infestation, read-out: control (mortality, anti-feeding effect, growth inhibition)
Method: 24-well microtiter plates with artificial diet were treated with aqueous test solutions prepared from 10′000 ppm DMSO stock solutions by pipetting. After drying, the plates were infested with L2 larvae (6-8 per well). The samples were assessed for mortality, anti-feeding effect, and growth inhibition in comparison to untreated samples 6 days after infestation. Control of Chilo suppressalis by a test sample is given when at least one of the categories mortality, anti-feedant effect, and growth inhibition is higher than the untreated sample.

[3] = tested on: Myzus persicae (Green Peach Aphid); test: Activity against Myzus persicae (green peach aphid), systemic activity; settings: 144 h, test rate of 24 ppm, pea seedling roots in test solution, 6 days
Method: Roots of pea seedlings infested with an aphid population of mixed ages were placed directly into aqueous test solutions prepared from 10′000 DMSO stock solutions. The samples were assessed for mortality 6 days after placing seedlings into test solutions.

[4] = tested on: Diabrotica Balteata (Corn Root Worm); test: Activity against Diabrotica balteata (corn root worm), maize sprouts sprayed; settings: 96 h, application rate of 200 ppm, L2 larvae, 4 days after infestation, read-out: effect in at least one of the two categories (mortality or growth inhibition)
Method: Maize sprouts placed onto an agar layer in 24-well microtiter plates were treated with aqueous test solutions prepared from 10′000 ppm DMSO stock solutions by spraying. After drying, the plates were infested with L2 larvae (6 to 10 per well). The samples were assessed for mortality and growth inhibition in comparison to untreated samples 4 days after infestation.

[5] = tested on: Carpocapsa (Cydia) Pomonella (Codling Moth); test: Activity against Carpocapsa (Cydia) pomonella (codling moth), larvicide, feeding/contact; settings: 336 h, application rate of 12.5 ppm, L1 larvae, 14 days after infestation, read-out: effect in at least one of the two categories (mortality or growth inhibition)
Method: Diet cubes coated with paraffin were sprayed with diluted test solutions in an application chamber. After drying off the treated cubes (10 replicates) were infested with 1 L1 larvae. Samples were incubated at 26-27° C. and checked 14 days after infestation for mortality and growth inhibition. The following compounds gave an effect of at least 80% in at least one of the two categories (mortality or growth inhibition) at an application rate of 12.5 ppm: P1, P2, P3, P5, P9, P10, P11, P12, P14, P17, P19, P20, P21, P23, P24, P30, P31.

[6] = tested on: Euschistus heros (Neotropical Brown Stink Bug); test: Activity against Euschistus heros (neotropical brown stink bug), soybean leaves sprayed; settings: 120 h, application rate of 200 ppm, N2 nymphs, 5 days after infestation, read-out: effect in at least one of the two categories (mortality or growth inhibition)
Method: Soybean leaves on agar in 24-well microtiter plates were sprayed with aqueous test solutions prepared from 10′000 ppm DMSO stock solutions. After drying the leaves were infested with N2 nymphs. The samples were assessed for mortality and growth inhibition in comparison to untreated samples 5 days after infestation.

[7] = tested on: Plutella xylostella (Diamond Back Moth); test: Activity against Plutella xylostella (diamond back moth), artificial diet; settings: 192 h, application rate of 200 ppm, eggs, 8 days after infestation, read-out: effect in at least one of the two categories (mortality or growth inhibition)
Method: 24-well microtiter plates with artificial diet were treated with aqueous test solutions prepared from 10′000 ppm DMSO stock solutions by pipetting. After drying, Plutella eggs were pipetted through a plastic stencil onto a gel blotting paper and the plate was closed with it. The samples were assessed for mortality and growth inhibition in comparison to untreated samples 8 days after infestation.

[8] = tested on: Myzus persicae (Green Peach Aphid); test: Activity against Myzus persicae (green peach aphid), feeding/contact activity; settings: 144 h, application rate of 200 ppm, mixed ages, 6 days after infestation
Method: Sunflower leaf discs were placed onto agar in a 24-well microtiter plate and sprayed with aqueous test solutions prepared from 10′000 ppm DMSO stock solutions. After drying, the leaf discs were infested with an aphid population of mixed ages. The samples were assessed for mortality 6 days after infestation.

[9] = tested on: Spodoptera littoralis (Egyptian Cotton Leaf Worm); test: Activity against Spodoptera littoralis (Egyptian cotton leaf worm), cotton leaf discs sprayed; settings: foliar, 72 h, application rate of 200 ppm, L1 larvae, 3 days after infestation, read-out: control (mortality, anti-feeding effect, growth inhibition)
Method: Cotton leaf discs were placed onto agar in 24-well microtiter plates and sprayed with aqueous test solutions prepared from 10′000 ppm DMSO stock solutions. After drying the leaf discs were infested with five L1 larvae. The samples were assessed for mortality, anti-feeding effect, and growth inhibition in comparison to untreated samples 3 days after infestation. Control of Spodoptera littoralis by a test sample is given when at least one of the categories mortality, anti-feedant effect, and growth inhibition is higher than the untreated sample.

[10] = tested on: Bemisia tabaci (Cotton White Fly); test: Activity against Bemisia tabaci (cotton white fly), cotton leaf discs sprayed; settings: foliar, 144 h, application rate of 200 ppm, adult white flies, 6 days after incubation
Method: Cotton leaf discs were placed on agar in 24-well microtiter plates and sprayed with aqueous test solutions prepared from 10′000 ppm DMSO stock solutions. After drying the leaf discs were infested with adult white flies. The samples were checked for mortality 6 days after incubation.

CCS(=O)(=O)c1cccnc1-c1cc2c(cn1)N(CC(F)(F)C(F)(F)F)C(=O)CC2 [P1, 6-(3-ethylsulfonyl-2-pyridyl)-1-(2,2,3,3,3-pentafluoropropyl)-3,4-dihydro-1,7-naphthyridin-2-one]
≥ 80%: mortality at 12.5 ppm [1] | mortality at 200 ppm [2] | mortality at 24 ppm [3] | percent effect (mortality or growth inhibition) at 200 ppm [4] | percent effect (mortality or growth inhibition) at 12.5 ppm [5] | percent effect (mortality or growth inhibition) at 200 ppm [6] | percent effect (mortality or growth inhibition) at 200 ppm [7] | mortality at 200 ppm [8] | mortality at 200 ppm [9]

CCS(=O)(=O)c1cc(C2(C#N)CC2)cnc1-c1cc2c(cn1)N(CC(F)(F)F)C(=O)CC2 [P2, 1-[5-ethylsulfonyl-6-[2-oxo-1-(2,2,2-trifluoroethyl)-3,4-dihydro-1,7-naphthyridin-6-yl]-3-pyridyl]cyclopropanecarbonitrile]
≥ 80%: mortality at 12.5 ppm [1] | mortality at 200 ppm [10] | mortality at 200 ppm [2] | mortality at 24 ppm [3] | percent effect (mortality or growth inhibition) at 200 ppm [4] | percent effect (mortality or growth inhibition) at 12.5 ppm [5] | percent effect (mortality or growth inhibition) at 200 ppm [6] | percent effect (mortality or growth inhibition) at 200 ppm [7] | mortality at 200 ppm [8] | mortality at 200 ppm [9]

CCS(=O)(=O)c1cc(C2(C#N)CC2)cnc1-c1cc2c(cn1)N(CC(F)(F)C(F)(F)F)C(=O)OC2 [P3, 1-[5-ethylsulfonyl-6-[2-oxo-1-(2,2,3,3,3-pentafluoropropyl)-4H-pyrido[3,4-d][1,3]oxazin-6-yl]-3-pyridyl]cyclopropanecarbonitrile]
≥ 80%: mortality at 12.5 ppm [1] | mortality at 200 ppm [10] | mortality at 200 ppm [2] | percent effect (mortality or growth inhibition) at 200 ppm [4] | percent effect (mortality or growth inhibition) at 12.5 ppm [5] | percent effect (mortality or growth inhibition) at 200 ppm [6] | percent effect (mortality or growth inhibition) at 200 ppm [7] | mortality at 200 ppm [8] | mortality at 200 ppm [9]

CCS(=O)(=O)c1cc(N(C)C(C)=O)cnc1-c1cc2c(cn1)N(CC(F)(F)C(F)(F)F)C(=O)CC2 [P8, N-[5-ethylsulfonyl-6-[2-oxo-1-(2,2,3,3,3-pentafluoropropyl)-3,4-dihydro-1,7-naphthyridin-6-yl]-3-pyridyl]-N-methyl-acetamide]
≥ 80%: mortality at 200 ppm [2] | mortality at 24 ppm [3] | percent effect (mortality or growth inhibition) at 200 ppm [6] | percent effect (mortality or growth inhibition) at 200 ppm [7] | mortality at 200 ppm [8] | mortality at 200 ppm [9]

CCS(=O)(=O)c1cc(C(C)(C)C#N)cnc1-c1cc2c(cn1)N(CC(F)(F)C(F)(F)F)C(=O)CC2 [P11, 2-[5-ethylsulfonyl-6-[2-oxo-1-(2,2,3,3,3-pentafluoropropyl)-3,4-dihydro-1,7-naphthyridin-6-yl]-3-pyridyl]-2-methyl-propanenitrile]
≥ 80%: mortality at 12.5 ppm [1] | mortality at 200 ppm [10] | mortality at 200 ppm [2] | mortality at 24 ppm [3] | percent effect (mortality or growth inhibition) at 200 ppm [4] | percent effect (mortality or growth inhibition) at 12.5 ppm [5] | percent effect (mortality or growth inhibition) at 200 ppm [6] | percent effect (mortality or growth inhibition) at 200 ppm [7] | mortality at 200 ppm [8] | mortality at 200 ppm [9]

CCS(=O)(=O)c1cc(C2(C#N)CC2)cnc1-c1cc2c(cn1)N(CC(F)(F)C(F)(F)F)C(=O)CC2 [P12, 1-[5-ethylsulfonyl-6-[2-oxo-1-(2,2,3,3,3-pentafluoropropyl)-3,4-dihydro-1,7-naphthyridin-6-yl]-3-pyridyl]cyclopropanecarbonitrile]
≥ 80%: mortality at 12.5 ppm [1] | mortality at 200 ppm [10] | mortality at 200 ppm [2] | mortality at 24 ppm [3] | percent effect (mortality or growth inhibition) at 200 ppm [4] | percent effect (mortality or growth inhibition) at 12.5 ppm [5] | percent effect (mortality or growth inhibition) at 200 ppm [6] | percent effect (mortality or growth inhibition) at 200 ppm [7] | mortality at 200 ppm [8] | mortality at 200 ppm [9]

CCS(=O)(=O)c1cc(C(C)(C)C#N)cnc1-c1cc2c(cn1)N(CC(F)(F)C(F)(F)F)C(=O)OC2 [P15, 2-[5-ethylsulfonyl-6-[2-oxo-1-(2,2,3,3,3-pentafluoropropyl)-4H-pyrido[3,4-d][1,3]oxazin-6-yl]-3-pyridyl]-2-methyl-propanenitrile]
≥ 80%: mortality at 200 ppm [2] | mortality at 24 ppm [3] | percent effect (mortality or growth inhibition) at 200 ppm [4] | percent effect (mortality or growth inhibition) at 200 ppm [6] | percent effect (mortality or growth inhibition) at 200 ppm [7] | mortality at 200 ppm [8] | mortality at 200 ppm [9]

CCS(=O)(=O)c1ccc(-c2ncccn2)nc1-c1cc2c(cn1)N(CC(F)(F)C(F)(F)F)C(=O)CC2 [P22, 6-(3-ethylsulfonyl-6-pyrimidin-2-yl-2-pyridyl)-1-(2,2,3,3,3-pentafluoropropyl)-3,4-dihydro-1,7-naphthyridin-2-one]
≥ 80%: mortality at 200 ppm [2] | mortality at 24 ppm [3] | percent effect (mortality or growth inhibition) at 200 ppm [4] | percent effect (mortality or growth inhibition) at 200 ppm [6] | percent effect (mortality or growth inhibition) at 200 ppm [7] | mortality at 200 ppm [8] | mortality at 200 ppm [9]
